SMILES strings stand for the structures.

The target in this test is T1, human HSL (Homo sapiens, UniProt Q05469).
T1 construct: generate a full length human HSL ORF with a 3′-His6 tag; made in house; host or cells: High 5 insect cells (baculovirus, pFast-BAC)
T1 sequence (Q05469 1-1076): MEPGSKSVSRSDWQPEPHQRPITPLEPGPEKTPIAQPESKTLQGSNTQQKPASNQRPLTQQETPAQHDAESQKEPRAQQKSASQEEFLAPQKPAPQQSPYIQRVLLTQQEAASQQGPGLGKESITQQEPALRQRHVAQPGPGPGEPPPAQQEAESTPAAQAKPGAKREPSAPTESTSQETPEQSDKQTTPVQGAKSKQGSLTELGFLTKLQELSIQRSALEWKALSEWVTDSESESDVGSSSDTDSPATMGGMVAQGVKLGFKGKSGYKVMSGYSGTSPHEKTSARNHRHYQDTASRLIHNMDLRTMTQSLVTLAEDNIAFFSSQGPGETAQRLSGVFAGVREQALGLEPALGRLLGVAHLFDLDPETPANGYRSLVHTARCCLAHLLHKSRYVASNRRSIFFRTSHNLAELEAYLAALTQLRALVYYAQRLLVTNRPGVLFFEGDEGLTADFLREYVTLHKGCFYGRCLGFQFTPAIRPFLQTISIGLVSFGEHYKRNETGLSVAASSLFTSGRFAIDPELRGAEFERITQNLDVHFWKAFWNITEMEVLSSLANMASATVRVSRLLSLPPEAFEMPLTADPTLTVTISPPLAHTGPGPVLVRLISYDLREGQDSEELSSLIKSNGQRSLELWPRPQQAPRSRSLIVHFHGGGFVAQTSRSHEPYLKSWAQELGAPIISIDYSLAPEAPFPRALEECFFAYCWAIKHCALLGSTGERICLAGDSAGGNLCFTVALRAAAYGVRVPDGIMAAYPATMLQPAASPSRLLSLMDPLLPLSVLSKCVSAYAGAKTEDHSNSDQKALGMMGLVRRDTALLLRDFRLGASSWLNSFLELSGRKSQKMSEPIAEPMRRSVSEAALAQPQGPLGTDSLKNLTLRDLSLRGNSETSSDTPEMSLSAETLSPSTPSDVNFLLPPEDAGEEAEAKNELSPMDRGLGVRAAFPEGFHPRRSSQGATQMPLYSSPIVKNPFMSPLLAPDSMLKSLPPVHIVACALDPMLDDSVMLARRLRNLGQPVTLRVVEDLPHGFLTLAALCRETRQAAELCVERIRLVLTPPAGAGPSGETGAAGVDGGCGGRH
In words: Human Hormone-Sensitive Lipase (HSL) enzyme inhibition assay (colorimetric, DMPT substrate). As to conditions: human full length HSL-His6, 2,3-dimercapto-1-propanol tributyrate substrate, 37° C. 20 minutes, absorbance at 405 nm; read-out: HSL hum IC50. Type of test: biochemical. The essentials:
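Full-length human HSL with C-terminal His6, expressed in baculovirus-infected High 5 cells and Ni-NTA purified, was added (15 ug/ml stock) to 1.5 mM DMPT in 100 mM MOPS pH 7.2, 0.2 mg/ml fatty acid-free BSA containing compound. After 20 min at 37 °C, DTNB with SDS/Triton X-100 was added; A405 read after 15 min at RT.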
For `CCCOC[C@]1(O)CC[C@@]2(CCN(c3ccc(OCC(F)(F)F)cc3)C2=O)CC1` [Example 235, (5α,8β)-8-Hydroxy-8-propoxymethyl-2-[4-(2,2,2-trifluoro-ethoxy)-phenyl]-2-aza-spiro[4.5]decan-1-one], the IC50 (commonly the concentration that inhibits the measured activity by half) amounted to 630 nM. With `CC(C)[S+]([O-])C[C@]1(O)CC[C@]2(CCN(c3ccc(OCC(F)(F)F)cc3)C2=O)CC1` (stereo partly drawn) [Example 317, (5α,8α)-8-Hydroxy-8-(propane-2-sulfinylmethyl)-2-[4-(2,2,2-trifluoro-ethoxy)-phenyl]-2-aza-spiro[4.5]decan-1-one] the figure was 200 nM.

As to `COC[C@]1(O)CC[C@]2(CCN(c3ccc(C(F)(F)F)cc3)C2=O)CC1` [Example 121, (5α,8α)-8-Hydroxy-8-methoxymethyl-2-(4-trifluoromethyl-phenyl)-2-aza-spiro[4.5]decan-1-one], the IC50 came out at 100 nM. In the case of `CCC[C@]1(O)CC[C@@]2(CCN(c3ccc(OS(C)(=O)=O)cc3)C2=O)CC1` [Example 185, 4-((5α,8β))-8-hydroxy-1-oxo-8-propyl-2-aza-spiro[4.5]decan-2-yl)phenyl methanesulfonate], the IC50 came to 50 nM. In the case of `CC(C)SC[C@]1(O)CC[C@]2(CCN(c3ccc(O[C@H](C)C(F)(F)F)nc3)C2=O)CC1` [Example 321, (5α,8α)-8-Hydroxy-8-isopropylsulfanylmethyl-2-[6-((R)-2,2,2-trifluoro-1-methyl-ethoxy)-pyridin-3-yl]-2-aza-spiro[4.5]decan-1-one] it was 10 nM; in that of `O=C1N(c2ccc(OC(F)(F)F)cc2)CC[C@]12CC[C@@H]([S+]([O-])c1ccccc1)CC2` (stereo partly drawn) [Example 51, (5α,8β)-8-Benzenesulfinyl-2-(4-trifluoromethoxy-phenyl)-2-aza-spiro[4.5]decan-1-one], 20 nM; in that of `CCC[C@]1(O)CC[C@]2(CCN(c3ccc(OC(C)C)cc3)C2=O)CC1` [Example 184, (5α,8α)-8-Hydroxy-2-(4-isopropoxyphenyl)-8-propyl-2-aza-spiro[4.5]decan-1-one], 20 nM. In the case of `Cc1cccc(CO[C@H]2CC[C@@]3(CCN(c4ccc(OC(F)(F)F)cc4)C3=O)CC2)n1` [Example 16, (5α,8β)-8-(6-Methyl-pyridin-2-ylmethoxy)-2-(4-trifluoromethoxy-phenyl)-2-aza-spiro[4.5]decan-1-one] it was 100 nM; in that of `O=C1N(c2ccc([C@@H](O)C(F)(F)F)cc2)CC[C@]12CC[C@@](O)(COCC(F)F)CC2` [Example 160, (5α,8α)-8-(2,2-Difluoro-ethoxymethyl)-8-hydroxy-2-[4-((R)-2,2,2-trifluoro-1-hydroxy-ethyl)-phenyl]-2-aza-spiro[4.5]decan-1-one], 300 nM. For `CCC[C@]1(O)CC[C@]2(CCN(c3ccc(O[C@@H](C)C(F)(F)F)nc3)C2=O)CC1` [Example 172, (5α,8α)-8-Hydroxy-8-propyl-2-[6-((S)-2,2,2-trifluoro-1-methyl-ethoxy)-pyridin-3-yl]-2-aza-spiro[4.5]decan-1-one], the IC50 was found to be 20 nM. For the molecule `CCCC[C@]1(O)CC[C@@]2(CCN(c3ccc(OC(F)(F)F)cc3)C2=O)CC1` [Example 67, (5α,8β)-8-Butyl-8-hydroxy-2-(4-trifluoromethoxy-phenyl)-2-aza-spiro[4.5]decan-1-one], the half-inhibitory concentration (IC50) turned out to be 11100 nM. With `CC(C)Oc1ccc(N2CC[C@]3(CC[C@@](O)(c4cnn[nH]4)CC3)C2=O)cc1` [Example 374, (5α,8α)-8-hydroxy-2-(4-isopropoxyphenyl)-8-(1H-1,2,3-triazol-4-yl)-2-azaspiro[4.5]decan-1-one] the figure was 400 nM.

For the molecule `O=C1N(c2ccc(OC(F)(F)F)cc2)CC[C@]12CC[C@@](O)(Cc1ccccc1)CC2` [Example 62, (5α,8α)-8-Benzyl-8-hydroxy-2-(4-trifluoromethoxy-phenyl)-2-aza-spiro[4.5]decan-1-one], the IC50 came to 20 nM. With `CCC[C@]1(O)CC[C@]2(CCN(c3ccc(C(C)C)nc3)C2=O)CC1` [Example 101, (5α,8α)-8-Hydroxy-2-(6-isopropylpyridin-3-yl)-8-propyl-2-aza-spiro[4.5]decan-1-one] the figure was 110 nM.

Source of the values: patent US8440710B2, “HSL inhibitors useful in the treatment of diabetes” (Hoffmann-La Roche Inc., priority 2009, dated 2013).
